We go through one molecule from the NIST ThermoML archive (doi:10.1016/j.tca.2018.03.018).

The conditions of data set [1]: Crystal; DSC.
Data set [2] is described as follows: Molar enthalpy of transition or fusion. To be noted: Crystal; DSC.

± gives the expanded uncertainty stated by the source.

On to `CCCCCCCCCCCCCCCCCC(=O)O` [octadecanoic acid], for which the Triple point temperature in data set [1] is given as 325.66 ± 1 K. In addition, in data set [2], the “Molar enthalpy of transition or fusion” value was found to be 12 ± 0.335 kcal/mol.
